How the values were obtained:
MIN6 cells [1] = assay: Insulin secretion from MIN6 cells; assay type: cell-based; settings: for insulin secretory response: 1 mM glutathione for 4 hours, Nnt siRNA transfected cells; for insulin secretion: tolbutamide 200 μM
[2] = system: type-2 diabetic human islets; settings: cited from earlier work
MIN6 cells [3] = assay: Fura-2 calcium imaging in MIN6 cells; assay type: cell-based; settings: for calcium response to glucose: 1 mM glutathione for 4 hours, Nnt siRNA transfected cells
Experimental: (§1) MIN6 cells were cultured on 35mm Fluorodishes (World Precision Instruments) and incubated with 3 μM Fura-2-AM (Molecular Probes) for 40 min at 37° C. They were imaged at room temperature (20-24° C.) using an IonOptix fluorescence system (Boston, Mass.), with 340 nm and 380 nm dual excitation. The 510 nm emission ratio was collected at 1 Hz. Background subtraction was performed by measuring fluorescence from a cell-free region in the field of view. Cells were perfused continuously with extracellular solution containing (mM): 137 NaCl, 5.6 KCl, 2.6 CaCl2, 1.2 MgCl2, 10 HEPES (pH 7.4 with NaOH) plus glucose or tolbutamide as indicated.

[4] = system: human and rodent pancreatic islets; settings: preincubation in 15 μM metformin; cited from earlier work
[5] = system: isolated pancreatic islets; assay: Insulin secretion from isolated pancreatic islets
rodent islets = settings: cited from earlier work
[6] = system: β-cells isolated from C57BL/6J and C3H/HeH mice; assay: Fura-2 imaging of intracellular calcium in isolated β-cells; assay type: cell-based, mouse; settings: 500 μmol/l tolbutamide; C57BL/6J and C3H/HeH β-cells
Experimental: as §1, with “Islet” for “MIN6”, “35 mm” for “35mm”, “Instruments, Stevenage, UK)” for “Instruments)”, “Probes, Paisley, UK)” for “Probes)”, “(as in perforated-patch experiments),” for “containing (mM): 137 NaCl, 5.6 KCl, 2.6 CaCl2, 1.2 MgCl2, 10 HEPES (pH 7.4 with NaOH)”, “indicated. Only data from cells that responded to 500 μmol/l tolbutamide were analysed.” for “indicated.”

[7] = molecular target: T1, KATP channels from C57BL/6J β-cells (Mus musculus, UniProt Q61743); assay: ATP sensitivity of KATP channels in inside-out patches; assay type: biochemical
T1 construct: inside-out patches excised from a C57BL/6J or CH3/HeH β-cell; endogenous in cells; host or cells: primary pancreatic β-cells isolated from C57BL/6J and C3H/HeH mice
T1 sequence (Q61743 whole entry): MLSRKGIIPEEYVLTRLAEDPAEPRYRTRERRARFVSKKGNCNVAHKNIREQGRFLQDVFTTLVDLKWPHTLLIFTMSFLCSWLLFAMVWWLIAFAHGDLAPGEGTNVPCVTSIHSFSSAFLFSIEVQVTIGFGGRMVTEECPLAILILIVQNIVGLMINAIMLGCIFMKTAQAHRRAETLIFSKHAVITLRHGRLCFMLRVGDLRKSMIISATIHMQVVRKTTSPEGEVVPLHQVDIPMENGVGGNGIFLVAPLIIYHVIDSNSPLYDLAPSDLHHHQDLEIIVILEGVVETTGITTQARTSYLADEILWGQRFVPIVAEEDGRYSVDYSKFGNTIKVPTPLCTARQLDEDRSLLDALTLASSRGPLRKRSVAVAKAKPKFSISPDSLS
T1 sequence (B2RUS7 1-1588 partner): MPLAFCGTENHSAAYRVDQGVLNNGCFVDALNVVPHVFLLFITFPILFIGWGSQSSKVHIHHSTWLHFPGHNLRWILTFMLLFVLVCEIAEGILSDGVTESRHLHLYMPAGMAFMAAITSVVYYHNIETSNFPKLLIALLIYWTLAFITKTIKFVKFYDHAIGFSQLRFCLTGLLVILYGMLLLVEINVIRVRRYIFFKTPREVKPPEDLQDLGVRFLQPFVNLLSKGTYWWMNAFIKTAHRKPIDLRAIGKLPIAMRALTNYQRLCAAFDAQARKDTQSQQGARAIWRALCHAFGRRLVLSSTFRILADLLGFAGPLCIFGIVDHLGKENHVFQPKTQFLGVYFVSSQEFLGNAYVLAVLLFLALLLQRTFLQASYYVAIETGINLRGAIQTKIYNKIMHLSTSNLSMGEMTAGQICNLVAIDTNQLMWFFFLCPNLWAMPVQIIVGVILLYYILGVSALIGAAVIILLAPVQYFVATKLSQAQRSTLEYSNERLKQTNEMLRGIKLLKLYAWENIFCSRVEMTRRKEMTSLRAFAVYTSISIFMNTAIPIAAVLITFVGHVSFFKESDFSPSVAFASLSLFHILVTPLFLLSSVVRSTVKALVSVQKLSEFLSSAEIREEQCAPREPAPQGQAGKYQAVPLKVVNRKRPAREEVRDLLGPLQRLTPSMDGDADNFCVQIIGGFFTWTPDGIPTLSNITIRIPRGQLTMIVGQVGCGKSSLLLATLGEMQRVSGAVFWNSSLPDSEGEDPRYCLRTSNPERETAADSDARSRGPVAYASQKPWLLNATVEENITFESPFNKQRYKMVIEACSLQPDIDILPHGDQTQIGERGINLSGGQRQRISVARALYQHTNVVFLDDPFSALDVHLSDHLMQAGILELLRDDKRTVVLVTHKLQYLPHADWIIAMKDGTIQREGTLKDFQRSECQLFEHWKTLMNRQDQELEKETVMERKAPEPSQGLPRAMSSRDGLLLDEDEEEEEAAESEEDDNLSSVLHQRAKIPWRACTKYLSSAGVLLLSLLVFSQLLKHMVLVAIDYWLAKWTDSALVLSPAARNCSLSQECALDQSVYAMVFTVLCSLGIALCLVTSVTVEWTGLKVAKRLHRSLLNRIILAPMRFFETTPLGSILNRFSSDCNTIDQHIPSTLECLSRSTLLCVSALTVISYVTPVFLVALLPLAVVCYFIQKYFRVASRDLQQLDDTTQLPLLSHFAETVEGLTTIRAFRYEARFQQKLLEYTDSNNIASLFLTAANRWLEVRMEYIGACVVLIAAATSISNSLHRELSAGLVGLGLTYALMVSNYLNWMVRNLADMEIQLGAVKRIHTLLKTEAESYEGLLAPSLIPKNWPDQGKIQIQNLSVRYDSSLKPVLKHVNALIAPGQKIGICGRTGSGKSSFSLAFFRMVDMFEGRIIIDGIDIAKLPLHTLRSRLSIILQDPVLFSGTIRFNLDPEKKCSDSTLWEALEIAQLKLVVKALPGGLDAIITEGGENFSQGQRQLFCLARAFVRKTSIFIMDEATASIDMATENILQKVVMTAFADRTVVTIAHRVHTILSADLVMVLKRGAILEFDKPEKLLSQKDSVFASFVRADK
Experimental: The ATP sensitivity of KATP channels was measured at −60 mV in inside-out patches. Currents were digitized at 5 kHz and filtered at 2 kHz. The pipette (extracellular) contained (mmol/l): 140 KCl, 2.6 CaCl2, 1.2 MgCl2, 10 HEPES (pH 7.4 with KOH). The bath (intracellular) solution contained (mmol/l): 107 KCl, 1 MgCl2, 1 CaCl2, 10 HEPES (pH 7.2 with KOH), and K2ATP as indicated.
Concentration-response relations were obtained by alternating test solutions with control (glucose- or ATP-free) solution. The control conductance was taken as the mean of that obtained in control solution before and after application of the test agent. The current in the presence of glucose or nucleotide (I) is plotted as a fraction of that obtained in control solution (IC). Data were fit with the Hill equation: I/IC=1/(1+([X]/IC50)h) where [X] is the concentration of glucose or ATP, IC50 is the concentration giving half-maximal inhibition of the current and h is the Hill coefficient. Data are given as mean±one S.E.M.

[8] = system: isolated wild-type islets; assay: Glucose utilization in isolated pancreatic islets; assay type: cell-based, mouse; settings: H2O2, 20 mM glucose
Experimental: FIG. 19: Glucose utilization in pancreatic islets isolated wild-type and homozygous NNT mutant mice (G745D). Each data point is the mean of 6 replicates each of 5 islets. Glucose utilization was measured as described in Ashcroft S J H, Weerasinghe L C C, Bassett J M, Randle P J: The pentose cycle and insulin release in mouse pancreatic islets. Biochem J (1972) 126, 525-532. Briefly, And these islets were placed in 20 microlitres of medium containing [3H]glucose and various concentrations of unlabelled glucose (as indicated). The tubes were placed in outer vials containing 0.5 ml of water. After 2-hours of incubation, metabolism was terminated by applying 5 microlitres of HCl. Then these samples were incubated for more than 18-24 hours to allow [3H]water in the incubation tube to equilibrate with the water in outer vial. Then, radioactivity of the water in the outer vial was measured. Control samples without islets were used to correct for background counts.
FIG. 20: Effect of H2O2 on glucose utilization in isolated wild-type islets. Each data point is the mean of 6 replicates each of 5 islets.

Structure (SMILES): N[C@@H](CCC(=O)N[C@@H](CS)C(=O)NCC(=O)O)C(=O)O [glutathione]
- insulin secretory response (MIN6 cells [1]): partially reversed the impaired calcium and insulin secretory responses
- insulin secretory response (MIN6 cells [1]; listed as Glutathione): partially restores the insulin secretory response
- secretory response to glucose ([2]; 24-hour culture with 30 μM glutathione): improved significantly
- calcium response to glucose (MIN6 cells [3]): partially reversed the impaired calcium
- calcium response to glucose (MIN6 cells [3]; listed as Glutathione): partially restores the calcium response

Structure (SMILES): CN(C)C(=N)N=C(N)N [metformin]
- protection from deleterious effects of elevated lipids [4]: protects human and rodent pancreatic islets from the deleterious effects of elevated lipids
- insulin secretion ([2]; preincubation in 15 μM metformin): partially restores insulin secretion in type-2 diabetic human islets
- glucose-stimulated insulin secretion ([5]; Nnt-G745D islets, 24-hour preincubation in 15 μM metformin): restored glucose-stimulated insulin secretion in pancreatic islets from the Nnt-G745D mutant mouse
- glucose-stimulated insulin secretion ([5]; Nnt-G745D islets, 24-hour preincubation in 15 μM metformin, listed as Metformin): restores insulin secretion in Nnt mouse pancreatic islets
- glucose-stimulated insulin secretion ([5]; WT islets, 24-hour preincubation in 15 μM metformin): little effect on wild-type (WT) pancreatic islets
- glucose-stimulated insulin secretion ([5]; acute exposure to metformin): without effect
- glucose-stimulated insulin secretion (rodent islets; incubation at 1 mM metformin): reduces glucose-stimulated insulin secretion

Structure (SMILES): CCCCNC(=O)NS(=O)(=O)c1ccc(C)cc1 [tolbutamide]
- insulin secretion (MIN6 cells [1]; nonsense vs Nnt siRNA transfected cells): elicited equivalent responses in both nonsense and Nnt siRNA transfected cells
- insulin secretion (MIN6 cells [1]; nonsense, Nnt, UCP2, UCP2/Nnt or Gck siRNA transfected cells): stimulated a calcium response and insulin secretion
- change in [Ca2+]i [6]: rise in [Ca2+]i
- insulin secretion ([5]; tolbutamide, B6-TG vs B6-TG negative islets): stimulated secretion comparably in both strains
- increase in [Ca]i (MIN6 cells [3]; tolbutamide 200 μM, nonsense vs Nnt siRNA transfected cells): stimulated a similar increase in [Ca]i in both cells transfected with nonsense and Nnt siRNA
- calcium response (MIN6 cells [3]; tolbutamide 200 μM, nonsense, Nnt, UCP2 or UCP2+Nnt siRNA transfected cells): stimulated a calcium response

Structure (SMILES): Nc1ncnc2c1ncn2[C@@H]1O[C@H](COP(=O)(O)OP(=O)(O)OP(=O)(O)O)[C@@H](O)[C@H]1O [ATP]
- Hill coefficient h, ATP on KATP channel activity ([7]; inside-out patches, n=5): 0.89±0.06
- IC50 ([7]; read-out: half-maximal inhibition of C57BL/6J KATP channels by ATP (IC50)): 10 µM

Structure (SMILES): OO [H2O2]
- glucose utilization [8]: significantly increases glucose utilization
- insulin secretion (rodent islets; H2O2, rodent β-cells): inhibits insulin secretion

From patent US20070224648A1, “Methods and compositions for the diagnosis of treatment of type 2 diabetes” (The Chancellor, Masters and Scholars of the University of …, priority 2005, published 2007)
